# Patent US12215123B2, “Cordycepin-based derivatized compound with anti-tumor effect” (NANJING TECH UNIVERSITY, priority 2022, dated 2025)
# How the values were obtained:
# [1] = system: small cell lung cancer cell line H446; experiment: MTT proliferation, small cell lung cancer cell line H446; format: cell-based; settings: MTT, 72 hours, H446; read-out: IC50 (μM) of compounds in small cell lung cancer cells, H446
# Description: (§1) The method for determining inhibitory activities of the compounds on the proliferation of tumor cells by an MTT method is as follows: a bottle of cells in a good state in an exponential growth phase is added with 0.25% trypsin digestive juice, the digestion makes adherent cells fall off, with 2 to 4×10^4 cells/mL, and a cell suspension is prepared. The cell suspension is inoculated on a 96-well plate, with 90 μL/well, and cultured in a constant-temperature CO2 incubator for 24 hours. The prepared compounds are added for testing, with 10 μL/well, and cultured for 72 hours. An MTT reagent is added into a 96-well plate, with 10 μL/well, and reacts in an incubator for 4 hours to absorb a supernatant, and then dimethyl sulfoxide is added, with 100 μL/well. After a crystal is dissolved, an absorbance of each well at a wavelength of 570 nm is measured by an enzyme-linked immunosorbent assay instrument, and a cell inhibition rate is calculated. An S curve is made with a compound concentration and a corresponding inhibition rate. Therefore, IC50 of a corresponding compound is obtained.
# (§2) Anti-tumor dose-effect relationship curves of cordycepin and compounds 1, 2, 4, 5, 7, 8, 10, 12, 16, 18, 21, 23, 24, 35 and 38 in small cell lung cancer cell lines H1048, H446 and H69 were analyzed by an MTT experimental method.
# [2] = system: small cell lung cancer cell line H1048; experiment: MTT proliferation, small cell lung cancer cell line H1048; format: cell-based; settings: MTT, 72 hours, H1048; read-out: IC50 (μM) of compounds in small cell lung cancer cells, H1048
# Description: as §1, §2
# [3] = system: small cell lung cancer cell line H69; experiment: MTT proliferation, small cell lung cancer cell line H69; format: cell-based; settings: MTT, 72 hours, H69; read-out: IC50 (μM) of compounds in small cell lung cancer cells, H69
# Description: as §1, §2
# [4] = system: gastric cancer cell line AGS; experiment: MTT proliferation, gastric cancer cell line AGS; format: cell-based; settings: MTT, 72 hours, AGS; read-out: IC50 (μM) in gastric cancer cells, AGS
# Description: as §1
# (§3) Anti-tumor dose-effect relationship curves of the cordycepin and 40 compounds prepared in gastric cancer cell lines AGS and BGC-823 were analyzed by an MTT experimental method.
# [5] = system: gastric cancer cell line BGC-823; experiment: MTT proliferation, gastric cancer cell line BGC-823; format: cell-based; settings: MTT, 72 hours, BGC-823; read-out: IC50 (μM) in gastric cancer cells, BGC-823
# Description: as §1, §3
# MC-38 colon cancer cells = experiment: Mouse transplanted colon cancer model; format: in vivo, C57BL/6j nude mice; settings: MC-38 transplanted mice, 28 days, 500 ug/time/animal intragastric (compound daily, antibody every 4 days); control 1,300 mm^3
# Description: The feeding of the mouse model in the drug evaluation follows that: mice are fed and treated in a laminar flow cabinet, with 5 nude mice in each cage, drinking water and feedstuffs are added once every 3 days, and paddings are replaced once a week; a number of mice kept in each cage is no more than 5, the mice in separate cages are kept in groups as far as possible, and the mice should not be kept in a single cage; the animal management must conform to the relevant national standards on animal feeding management, and the behavioral needs of animals should be concerned at the same time to avoid unnecessary stress; the normal physiological and behavioral needs of animals, such as defecation, urination, constant body temperature maintenance, normal activities, posture adjustment and reproduction are met; good ventilation and dry animals are kept; the animals can access to drinking water and food at will, and supplementation, replacement and cleaning operations are easily carried out; a solid and safe environment is provided to avoid accidents of animals, such as escaping or limb trapping in a gap; the animals are avoided from being damaged by sharp edges or protrusions; and the animals are not disturbed during observation.
# A mouse transplanted colon cancer model was established and a drug was evaluated. […]
compound,measurement,setting,value
CC(C)OC(=O)[C@H](C)NP(=O)(COCC1CC(C#N)C(n2cnc3c(N)ncnc32)O1)Oc1ccccc1 (stereo partly drawn) [Compound 16],IC50,[1],19.1 µM
same,IC50,[2],25.5 µM
same,IC50,[3],23.3 µM
same,IC50,[4],0.14 µM
same,IC50,[5],0.19 µM
same,tumor size,MC-38 colon cancer cells,480 mm^3
